This experiment deals with PRMT5/MEP50 complex (Homo sapiens, UniProt O14744). Put plainly: Inhibition of recombinant human fetal brain FLAG-tagged PRMT5/full length human testis 6His-tagged MEP50 expressed in baculovirus infected insect Sf9 cells using human histone H4 (1 to 15 residues) as substrate preincubated for 30 mins followed by [3H]-SAM addition.

The structures appear in SMILES notation.

The term IC50 denotes the concentration at which inhibition is half-maximal.

PRMT5/MEP50 complex, sequence (O14744 whole entry, the tested form may be a part): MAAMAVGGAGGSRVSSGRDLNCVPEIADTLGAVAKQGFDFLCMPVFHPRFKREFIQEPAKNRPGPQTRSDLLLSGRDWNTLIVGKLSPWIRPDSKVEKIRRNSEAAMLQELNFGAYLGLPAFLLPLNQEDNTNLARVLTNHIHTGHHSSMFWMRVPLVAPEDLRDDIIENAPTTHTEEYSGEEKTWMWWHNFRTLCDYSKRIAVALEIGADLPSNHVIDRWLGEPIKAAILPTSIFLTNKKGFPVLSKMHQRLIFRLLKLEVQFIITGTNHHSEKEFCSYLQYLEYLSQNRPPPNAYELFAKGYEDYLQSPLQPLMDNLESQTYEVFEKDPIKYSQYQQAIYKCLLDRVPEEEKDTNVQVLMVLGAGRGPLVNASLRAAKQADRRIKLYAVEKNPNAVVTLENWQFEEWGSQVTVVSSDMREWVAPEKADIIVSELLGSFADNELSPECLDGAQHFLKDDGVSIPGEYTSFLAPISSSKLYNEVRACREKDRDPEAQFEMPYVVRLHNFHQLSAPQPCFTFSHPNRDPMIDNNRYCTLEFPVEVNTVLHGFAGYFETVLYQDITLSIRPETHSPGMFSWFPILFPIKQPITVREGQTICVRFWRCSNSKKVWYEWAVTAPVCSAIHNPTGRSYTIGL
PRMT5/MEP50 complex, sequence (Q9BQA1 whole entry, further chain, the tested form may be a part): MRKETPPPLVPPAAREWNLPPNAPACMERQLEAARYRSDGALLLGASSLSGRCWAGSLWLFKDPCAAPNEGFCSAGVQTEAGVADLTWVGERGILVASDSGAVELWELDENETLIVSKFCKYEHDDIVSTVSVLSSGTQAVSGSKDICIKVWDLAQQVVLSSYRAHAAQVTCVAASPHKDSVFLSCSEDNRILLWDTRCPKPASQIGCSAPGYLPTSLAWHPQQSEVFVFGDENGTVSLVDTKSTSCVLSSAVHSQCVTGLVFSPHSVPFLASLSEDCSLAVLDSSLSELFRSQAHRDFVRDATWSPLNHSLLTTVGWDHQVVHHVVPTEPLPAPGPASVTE

In the case of `Nc1ncccc1OCC(=O)NCC(O)CN1CCc2ccccc2C1` (stereo not given), the IC50 lay within 1 to 10 µM.

Turning to `CC(C)(C)OC(=O)Nc1ccccc1OCC(=O)NCC(O)CN1CCc2ccccc2C1` (stereo not given), the IC50 is 1 to 10 µM.

On to `CS(=O)(=O)Nc1cccnc1OCC(=O)NCC(O)CN1CCc2ccccc2C1` (stereo not given), for which the IC50 lay in the range of 1 to 10 µM.

Turning to `O=C(COc1ccc(F)cc1)NCC(O)CN1CCc2ccccc2C1` (stereo not given), the IC50 was 1 to 10 µM.

As for `CS(=O)(=O)c1ccc(OCC(=O)NCC(O)CN2CCc3ccccc3C2)cc1` (stereo not given), the IC50 was in the range of 1 to 10 µM.

As to `CN(C)c1cncc(OCC(=O)NCC(O)CN2CCc3ccccc3C2)c1` (stereo not given), the half-inhibitory concentration (IC50) was in the range of 1 to 10 µM.

In the case of `O=C(COc1cccc(NC2CCOCC2)n1)NCC(O)CN1CCc2ccccc2C1` (stereo not given), the IC50 is 1 to 10 µM.

For `CC(=O)Nc1cncc(OCC(=O)NCC(O)CN2CCc3ccccc3C2)c1` (stereo not given), the IC50 is above 10 µM.

Regarding `O=C(COC1CCOCC1)NCC(O)CN1CCc2ccccc2C1` (stereo not given), the 50% inhibitory concentration (IC50) was in the range of 1 to 10 µM.

In the case of `O=C(COc1ccccc1OCCN1CCOCC1)NC[C@@H](O)CN1CCc2ccccc2C1`, the IC50 lay in the range of 1 to 10 µM.

For the compound `O=C(COc1ccccc1-c1c[nH]cn1)NCC(O)CN1CCc2ccccc2C1` (stereo not given), the IC50 is 10 to 50 µM.

For the compound `O=C(COc1ccccc1)NC[C@@H](O)CN1CCc2ccccc2C1`, the half-inhibitory concentration (IC50) was in the range of 1 to 10 µM.

As for `O=C(NC[C@@H](O)CN1CCc2ccccc2C1)c1ccccc1`, the IC50 lay in the range of 1 to 10 µM.

Regarding `CN1CCC(c2ccccc2OCC(=O)NCC(O)CN2CCc3ccccc3C2)C1` (stereo not given), the IC50 lay in the range of 1 to 10 µM.

Consider `O=C(COc1cccc2[nH]c(=O)cnc12)NCC(O)CN1CCc2ccccc2C1` (stereo not given), for which the concentration for half-maximal inhibition (IC50) is 1 to 10 µM.

`O=C(Cc1ccccc1)NC[C@@H](O)CN1CCc2ccccc2C1`: the IC50 was in the range of 10 to 50 µM.

In the case of `O=C(CC1CCCCC1)NC[C@H](O)CN1CCc2ccccc2C1`, the half-inhibitory concentration (IC50) is 1 to 10 µM.

Consider `NS(=O)(=O)c1cccc(OCC(=O)NCC(O)CN2CCc3ccccc3C2)c1` (stereo not given), for which the IC50 lay in the range of 1 to 10 µM.

`O=C(COc1ccccc1C1CNC1)NCC(O)CN1CCc2ccccc2C1` (stereo not given): the half-inhibitory concentration (IC50) is 1 to 10 µM.

Turning to `C[C@H](Oc1cccc2cccnc12)C(=O)NC[C@@H](O)CN1CCc2ccccc2C1`, the IC50 fell in the range of 1 to 10 µM.

With `CN(CC(O)CN1CCc2ccccc2C1)C(=O)CCc1ccccc1` (stereo not given), the IC50 lay within 1 to 10 µM.

For the compound `O=C(COC1CCCCC1)NCC(O)CN1CCc2ccccc2C1` (stereo not given), the half-maximal inhibitory concentration (IC50) was in the range of 0.101 to 1 µM.

Consider `CC(C)(Oc1ccccc1)C(=O)NCC(O)CN1CCc2ccccc2C1` (stereo not given), for which the IC50 lay in the range of 0.101 to 1 µM.

Regarding `CC(=O)Nc1ncccc1OCC(=O)NCC(O)CN1CCc2ccccc2C1` (stereo not given), the IC50 is above 10 µM.

`CN(C)c1cccnc1OCC(=O)NCC(O)CN1CCc2ccccc2C1` (stereo not given): the IC50 was above 10 µM.

As for `O=C(COc1cccc2cccnc12)NCC(O)CN1Cc2ccccc2C(F)(F)C1` (stereo not given), the IC50 is above 10 µM.

As for `O=C(Cc1ccccc1)NC[C@H](O)CN1CCc2ccccc2C1`, the half-maximal inhibitory concentration (IC50) was 0.101 to 1 µM.

`O=C(CCc1ccccc1)NCC(O)CN1CCc2ccccc2C1` (stereo not given): the IC50 fell in the range of 1 to 10 µM.

On to `O=C(COc1cccc2c1CCCN2)NCC(O)CN1CCc2ccccc2C1` (stereo not given), for which the concentration for half-maximal inhibition (IC50) lay within 0.101 to 1 µM.

As for `CC(=O)Nc1cccnc1OCC(=O)NCC(O)CN1CCc2ccccc2C1` (stereo not given), the IC50 was above 50 µM.

Turning to `CC(Oc1ccccc1S(N)(=O)=O)C(=O)NCC(O)CN1CCc2ccccc2C1` (stereo not given), the IC50 is above 50 µM.

As for `NS(=O)(=O)c1ccc(OCC(=O)NCC(O)CN2CCc3ccccc3C2)cc1` (stereo not given), the IC50 was in the range of 1 to 10 µM.

Take `CN(CC(O)CN1CCc2ccccc2C1)C(=O)COc1ccccc1` (stereo not given): the IC50 fell in the range of 10 to 50 µM.

As for `O=C(CC1CCCCC1)NC[C@@H](O)CN1CCc2ccccc2C1`, the half-inhibitory concentration (IC50) is 10 to 50 µM.

Take `O=C(Cc1ccncc1)NCC(O)CN1CCc2ccccc2C1` (stereo not given): the IC50 was 10 to 50 µM.

Regarding `CS(=O)(=O)Nc1ncccc1OCC(=O)NCC(O)CN1CCc2ccccc2C1` (stereo not given), the 50% inhibitory concentration (IC50) was above 10 µM.

On to `O=C(NC[C@@H](O)CN1CCc2ccccc2C1)Nc1ccccc1`, for which the IC50 was 1 to 10 µM.

As for `NC(=O)c1ccc(OCC(=O)NCC(O)CN2CCc3ccccc3C2)cc1` (stereo not given), the IC50 fell in the range of 1 to 10 µM.

On to `CN1CC(c2ccccc2OCC(=O)NCC(O)CN2CCc3ccccc3C2)C1` (stereo not given), for which the IC50 lay in the range of 1 to 10 µM.

Regarding `O=C(COc1cccc2c1CCCN2Cc1ccccc1)NCC(O)CN1CCc2ccccc2C1` (stereo not given), the concentration for half-maximal inhibition (IC50) was below 0.1 µM.

Values taken from ChEMBL document CHEMBL3879915, “Methods of inhibiting PRMT5” (2014).
